Results reported in patent publication US20230289968A1, “AUTOMATED ANALYSIS OF CELL CULTURES” (Hoffmann-La Roche Inc., priority 2020, published 2023).

Key:
[1] = tested on: MDA-MB-231 cells co-cultured with CAFs; assay: Breast-cancer-on-chip co-culture with cancer-associated fibroblasts, STAMP apoptosis rate; assay type: cell-based; conditions: 1 µM doxorubicin, 6:1 cancer:CAF ratio, TLAG = 4 h, 68 hrs
Method: MDA-MB-231 cancer cells were co-cultured on-chip +/- cancer-associated fibroblasts (CAFs) and +/- doxorubicin (1 µM) treatment. Final CAF:cancer ratio was 1:6. […] The data are the means of 3 measurements coming from 3 videos of the same experiment (+/- SEM). The data illustrating the MDA-MB-231 without CAFs conditions come from the same videos analyzed for FIG. 4 but with different time-interval resolution.
Cell cultures The MDA-MB-231 cell line, from triple negative breast cancer, was cultured in high-glucose DMEM (GE Healthcare, #SH30081.01) supplemented with 10% fetal bovine serum (Biosera), 1% Penicillin/Streptomycin (Gibco), 1% glutamine (Gibco). The IGR-Pub lung adenocarcinoma cells and the autologous T cells P62 were harvested from the same patient in Institut Gustave Roussy. […]
Having established that the STAMP method accurately monitors cancer death within co-cultures of cancer and T cells, we moved to bi-cultures of cancer cells and cancer-associated fibroblasts (CAFs). […] Since it is well established that CAFs contribute to chemoresistance in various cancer types, by co-culturing primary breast CAFs with the breast cancer MDA-MB-231 cells, we assessed the capacity of ToC to recapitulate the CAF impact on doxorubicin resistance ex vivo.

MDA-MB-231 cells = assay: Breast-cancer-on-chip culture, time-lapse imaging analysed with STAMP (apoptosis rate, Pdeath); assay type: cell-based; conditions: 1 µM doxorubicin
Method: Cell cultures The MDA-MB-231 cell line, from triple negative breast cancer, was cultured in high-glucose DMEM (GE Healthcare, #SH30081.01) supplemented with 10% fetal bovine serum (Biosera), 1% Penicillin/Streptomycin (Gibco), 1% glutamine (Gibco). The IGR-Pub lung adenocarcinoma cells and the autologous T cells P62 were harvested from the same patient in Institut Gustave Roussy. The IGR-Pub cells were cultured in DMEM F12 (GIBCO) supplemented with 10% fetal bovine serum (Biosera), 1% of Ultroser G (Pall), 1% of Sodium Pyruvate (Gibco) and 1% Penicillin/Streptomycin (GIBCO). P62 T cells were cultured in RPMI-1640 (GE Healthcare) supplemented with 10% human AB serum (Institut Jacques Boy, Reims, France), rIL-2 (20 U/ml, Gibco), 1% of Sodium Pyruvate (Gibco) and 0.1% Penicillin/Streptomycin (Gibco). Primary cancer-associated fibroblasts (CAFs) were isolated and cultured as previously reported. All cell lines were periodically tested to exclude mycoplasma contamination using a qPCR-based method (VenorGem Classic, BioValley, #11-1250). The MDA-MB-231 cell line was authenticated by SRT profiling (GenePrint 10 system, Promega, #B9510). Doxorubicin was purchased from Teva pharmaceuticals (200 mg/ml).
Tumor-on-chip preparation The microfluidic devices were purchased from AIM-Biotech (#DAX-1). Cells were seeded in the central chamber of the DAX-1 chips embedded in a matrix composed of type I rat tail collagen (Thermofisher, #A1048301) at the final concentration of 2.3 mg/ml. Cancer cells were seeded in the gel at a final density of 2×10^6 cells/ml. Autologous T cells were added at final densities of 0.2×10^6 to 2×10^6 cells/ml in order to obtain different ratios (from 10:1 to 1:1) between cancer and T cells. Primary CAFs were added at cancer:CAF 6:1 ratio. The microfluidic devices were incubated for 30 min at 37° C. in a humidified chamber to allow the polymerization of the collagen solution; afterwards, 120 µl of culture medium were added in each lateral chamber. MDA-MB-231 cells in chip were cultured in the same medium used for dish 2D culture, whereas the IGR-Pub/P62 cells co-cultures were cultured in T-cell medium, supplemented with rIL-2 (10 U/ml, GIBCO, #PHC0027). After the addition of the medium, the microfluidic devices were kept for 1 hour in the incubator before transfer to the incubating chamber of the microscope for imaging.
Cell staining Cancer cells were labeled with CellTrace™ Yellow (Thermofisher, #C34567) before seeding in the gel, for the detection in the so-called “red channel” of fluorescence. […] CellTrace™ exists in 4 colours so up to 5 different cell populations could potentially be analysed separately (4 colours + unstained) by staining the cells prior to mixing. […]

SMILES: COc1cccc2c1C(=O)c1c(O)c3c(c(O)c1C2=O)C[C@@](O)(C(=O)CO)C[C@@H]3O[C@H]1C[C@H](N)[C@H](O)[C@H](C)O1 [doxorubicin]
- doxorubicin-dependent apoptotic increase in presence of CAFs [1]: completely impaired
- latency in the response to doxorubicin (MDA-MB-231 cells; 3D on-chip (FIG. 4C, right)): 20 h
- death rate during the first 20 hrs of treatment (MDA-MB-231 cells; TLAG = 10 hrs, 3D on-chip): remained at basal level
- death rate (apoptosis rate) in 10 hrs-time-intervals (MDA-MB-231 cells; after 20 hrs of exposure, TLAG = 10 hrs, 3D on-chip, 72 h): more than 10%
- Potential of death induction (Pdeath) increase (MDA-MB-231 cells; during the first 2 days, remains high during the 3rd day, T̃ = 16 hr): 3-4 fold
